Data: patent EP4497440A1, “USE OF 7-TRIFLUOROMETHYL-7ALPHA,25-DIHYDROXYCHOLESTEROL IN THE TREATMENT AND MODULATION OF AUTOIMMUNE AND INFLAMMATORY DISEASES OF THE NERVOUS SYSTEM AND NEURODEGENERATIVE DISEASES” (Gdanski Uniwersytet Medyczny, priority 2023, dated 2025)
Where “and” joins values, the source holds several entries; their conditions need not be identical. Equal entries are not always repeated. Entries after “also recorded” stand apart in the source; their conditions may differ.

Key:
white blood cells = assay: Cuprizone model: blood morphology (white blood cell counts); assay type: in vivo, mice
Experimental: (§1) C (Fig 7) or #3 (Fig 8 and 9) vehicle control group - the mice were fed with chow containing cuprizone for 9 weeks, and then with regular chow without cuprizone for another 2 weeks. Over the 2 weeks on regular chow the mice in the vehicle control group were first injected vehicle #1: DMSO (intraperitoneal injection), 150 µl once a day, and then vehicle #2: canola oil, subcutaneously, 150 µl once a day.
#4 (Fig 8 and 9) barbadin control group - the mice were fed with chow containing cuprizone for 9 weeks, and then with regular chow without cuprizone for another 2 weeks. Over the 2 weeks on regular chow the mice in the group were injected barbadin 0.3 mg/kg, intraperitoneally, 150 µl once a day, and then vehicle #2: canola oil, subcutaneously, 150 µl once a day.
E (Fig 7) or #5 experimental group with oxysterol CF3-7α,25OHC - the mice were fed with chow containing cuprizone for 9 weeks, and then with regular chow without cuprizone for another 2 weeks. Over the 2 weeks on regular chow the mice in the group were injected vehicle #1: DMSO, intraperitoneally, 150 µl once a day, and CF3-7α,25OHC, dose: 20 mg/kg, subcutaneously, 150 µl once a day.
#6 (Fig 8 and 9) experimental group with barbadin + oxysterol CF3-7α,25OHC - the mice were fed with chow containing cuprizone for 9 weeks, and then with regular chow without cuprizone for another 2 weeks. Over the 2 weeks on regular chow the mice in the group were injected barbadin, 0.3 mg/kg, intraperitoneally, 150 µl once a day, and then one hour following the barbadin injection they were injected CF3-7α,25OHC, dose: 20 mg/kg, subcutaneously, 150 µl once a day.
The blood from the heart was sampled after the mice had been euthanised, and blood morphology test was performed using a standard diagnostic analyser. […] The lymphocyte count in peripheral blood of the mice which had been injected with CF3-7α,25OHC was lower by 50% compared to the control group of mice injected with vehicles (gr. #3 or C). The specific action of CF3-7α,25OHC leading to reduction of the lymphocyte count in blood finds confirmation in the results obtained for the mice of groups #4 (or D) and #6 (or F). Compared to the control group, the lymphocyte count in blood in the group of mice injected with barbadin (#4 or D) was lower only by 21%, and in the group of mice injected with barbadin + CF3-7α,25OHC by 7%. Following interaction with CF3-7α,25OHC, barbadin blocks internalisation of the EBI2 receptor from the cell membrane. The absence of any significant effect related to the treatment with barbadin or barbadin + CF3-7α,25OHC indicates a specific action of CF3-7α,25OHC on the EBI2 receptor and the consequential effects of that action, namely reduction of the count of circulating lymphocytes in blood. Moreover, the number of monocytes in group #5 (or E: mice treated with CF3-7α,25OHC) was lower by as much as 66% and the total leukocyte count (lymphocytes and monocytes included) was also substantially lower (by 51%), though only in the group of mice injected with CF3-7α,25OHC. In our subsequent in vivo tests (short-term pharmacology) we confirmed the action of CF3-7α,25OHC. In that test, too, it reduced the count of white blood cells. CF3-7α,25OHC reduces the lymphocyte count as early as following the 4 mg/kg dose and the effect lasts for 24 hours following administration.

Ebi2 receptor = assay: Ebi2 mRNA level in the cerebellum, cuprizone model; assay type: in vivo, mice; conditions: during remyelination in the cuprizone model
Ch25h, Cyp7b1, Hsd3b7 = assay: mRNA level of synthesizing and degrading enzymes in the cerebellum, cuprizone model; assay type: in vivo, mice
CD4+ cells = assay: Cuprizone model: immunofluorescently tagged CD4+ cells in the central part of the corpus callosum; assay type: in vivo, mice; conditions: after 14 days of treatment in the cuprizone model, group E
Text: Measurement of the quantity of immunofluorescently-tagged CD4+ cells in the central part of the corpus callosum following 14 days of treatment in the cuprizone model (Fig 7). Morphology of mouse blood in the cuprizone model and the in vivo model testing short-term pharmacotherapy of oxysterol CF3-7α,25OHC (Fig 10).
A (Fig 7) control group: regular cuprizone-free chow for 9 weeks. Mice were euthanised after 9 weeks and tissue samples were taken for analysis. In these mice, myelin sheaths were not removed.
B (Fig 7) control group with cuprizone: chow containing cuprizone for 9 weeks. The mice were euthanised following 9 weeks and tissue samples were taken for analysis. In the mice fed with cuprizone-containing chow myelin sheaths were removed.
as §1
E (Fig 7) or #5 experimental group with oxysterol CF3-7α,25OHC - the mice were fed with chow containing cuprizone for 9 weeks, and then with regular chow without cuprizone for another 2 weeks. […]

[1] = system: mice in the cuprizone model; assay: Cuprizone model: mass spectrometer imaging and lipid quantification in brain sections; assay type: in vivo
Text: Measurement of lipoprotein density in myelin sheaths, taken on sections of brains of the mice in the cuprizone model. The mice in the cuprizone model subject were divided into 6 groups: • #1. control group: regular cuprizone-free chow for 9 weeks. The mice were euthanised after 9 weeks and tissue samples were taken for analysis. In these mice no removal of myelin sheaths occurred. • #2. control group with cuprizone: chow containing cuprizone for 9 weeks. The mice were euthanised after 9 weeks and tissue samples were taken for analysis. In the mice fed with chow containing cuprizone myelin sheaths were removed. • #3. vehicle control group - the mice were fed with chow containing cuprizone for 9 weeks, and then with regular chow without cuprizone for 2 weeks. Over the 2 weeks on regular show the mice in the vehicle control group were first injected with vehicle #1: DMSO, intraperitoneally, 150 µl once a day, and then with vehicle #2: canola oil, subcutaneously, 150 µl once a day. • #4. barbadin control group - the mice were fed with chow containing cuprizone for 9 weeks and then with regular chow without cuprizone for 2 weeks. […]
Mouse brain sections were imaged using a mass spectrometer and then the lipid density was quantified (Fig 4). […]

[2] = after 14 days of treatment during remyelination in the cuprizone model

C[C@H](CCCC(C)(C)O)[C@H]1CC[C@H]2[C@H]3[C@H](CC[C@]12C)[C@@]1(C)CC[C@H](O)CC1=C[C@]3(O)C(F)(F)F [CF3-7α,25OHC, cholestene-7β-trifluoromethyl,3β,7α,25-triol]
drop in eosinophils (white blood cells; [2]): 43% | drop in monocytes (white blood cells; [2]): 66% | drop in neutrophils (white blood cells; [2]): 14% | drop in the total number of white blood cells (total leukocyte count) (white blood cells; after 14 days of treatment during remyelination in the cuprizone model, compared to vehicle group): 51% | drop in lymphocytes (lymphocyte count in peripheral blood lower by) (white blood cells; after 14 days of treatment in the cuprizone model, CF3-7α,25OHC 20 mg/kg s.c., barbadin 0.3 mg/kg i.p., compared to vehicle group #3): 51% and 50% | number of white blood cells (leukocytes, lymphocytes, monocytes) (white blood cells; cuprizone model, group #5 (E)): went down; also recorded: substantially reduced | level of Ebi2 expression (Ebi2 receptor): increases the level of Ebi2 expression | expression level of the synthesizing (Ch25h, Cyp7b1) and degrading (Hsd3b7) enzymes (Ch25h, Cyp7b1, Hsd3b7): does not regulate the expression level | count of CD4+ cells in the corpus callosum (CD4+ cells): fewest; also recorded: lowest count | content of cholesterol in the corpus callosum ([1]; group E (CF3-7α,25OHC 20 mg/kg) compared to control group treated with vehicles): higher | number of lipids with higher synthesis / concentration in the corpus callosum (brain) ([1]; group E compared to untreated group C): 15
